# Ends that are not written are not given here.
# Tests used:
# 53BP1 Tudor = assay: Chromatin-associated domain array (CADOR 5.0), 53BP1 Tudor; type: binding; settings: biotinylated peptide on CADOR 5.0; K235 methylation-dependent
# Experimental: (§1) For peptide pulldown assays, 1 μg of biotinylated histone and ERα peptides with or without methylation were incubated with 1 μg GST-PHF20 Tudor in binding buffer (50 mM Tris-HCl, pH 7.5, 300 mM NaCl, 0.1% NP-40 and 1 mM PMSF) for overnight. Streptavidin beads (GE Healthcare) were added into the mixture and incubated for 1 h with rotation. The beads were then washed three times, and analysed by SDS−PAGE and western blotting. For the protein domain array, the CADOR 5.0 protein domain array was probed with biotinylated ER peptides as described previously. The protein domains spotted on the CADOR 5.0 array are listed in the Supplementary Fig. 5. […]
# (§2) Recombinat Proteins Construct Sources a - Cheryl Arrowsmith d - Jiemin W ong g - Albert Jeltsch j - Judd Rice n - Alla Grishok b - Subhashini Sadasivem e - Or Gozani h - Yi Zhang k - Marc Timmers o - Olli Silvennoinen c - Jocelyn Coté f - Thomas Jenuwein i - Adrian Bird l - Michelle Barton p - Logan Donaldson […]
# (§3) Supplementary Figure 5. Domain layout of the Chromatin-Associated Domain Array […]
# (§4) (1 picture or pasted object on this page, not shown here)
# [1] = tested on: PHF20/PHF20L Tudor domains; assay: Chromatin-associated domain array (CADOR 5.0), PHF20/PHF20L Tudors; type: binding; settings: biotinylated peptide on CADOR 5.0; K235 methylation-dependent
# Experimental: as §1, §2, §3, §4
# S. pombe SPF30 Tudor = assay: Chromatin-associated domain array (CADOR 5.0), SPF30 Tudor; type: binding; settings: biotinylated peptide on CADOR 5.0; K235 methylation-dependent
# Experimental: as §1, §2, §3, §4
# MCF-7 cells = assay: RNA-seq in MCF-7 cells ±E2; type: cell-based, human; settings: 10 nM E2, 3 h
# Experimental: (§5) Human MCF-7, T-47D, U2OS and HEK293T cells (ATCC) were cultured in DMEM (Cellgro) supplemented with 10% fetal bovine serum (FBS, Sigma). For G9a inhibitor treatment, BIX-01294 (Sigma) was added to the medium, at the indicated concentrations, 24 h before the cells were collected. For shRNA knockdown, 293T cells were co-transfected with pMD2.G and pPAX2 (Addgene) together with pLKO-shRNA constructs or a non-targeting pLKO-shRNA (pLKO-shCtrl). Viral supernatants were harvested after 48 h. For infections, MCF-7 or T-47D cells were incubated with viral supernatants in the presence of 8 μg ml^−1 polybrene. After 48 h, puromycin (2 μg ml^−1) was added to the DMEM. Cells were grown, with selection for 5–7 days to select for stable knockdown cells before oestrogen treatment. […]
# RNA-seq samples were sequenced using the Illumina Hiseq 2000, and raw reads were mapped to the human reference genome (hg19) and transcriptome using the RNA-seq unified mapper. Read counts for each transcript were calculated using HTseq v0.6.1 using default parameters. […] For the PHF20 knockdown data set, the common dispersion and tag wise dispersion were calculated using the edgeR ‘estimateCommonDisp' and ‘estimateTagwise-Disp' functions, respectively. […]
# [2] = tested on: H4K16ac on ERα target gene promoters; assay: Histone H4K16ac ChIP-qPCR in MCF-7 cells; type: cell-based, human
# Experimental: (§6) Human MCF-7, T-47D, U2OS and HEK293T cells (ATCC) were cultured in DMEM (Cellgro) supplemented with 10% fetal bovine serum (FBS, Sigma). For G9a inhibitor treatment, BIX-01294 (Sigma) was added to the medium, at the indicated concentrations, 24 h before the cells were collected. For shRNA knockdown, 293T cells were co-transfected with pMD2.G and pPAX2 (Addgene) together with pLKO-shRNA constructs or a non-targeting pLKO-shRNA (pLKO-shCtrl). Viral supernatants were harvested after 48 h. For infections, MCF-7 or T-47D cells were incubated with viral supernatants in the presence of 8 μg ml^−1 polybrene. After 48 h, puromycin (2 μg ml^−1) was added to the DMEM. Cells were grown, with selection for 5–7 days to select for stable knockdown cells before oestrogen treatment. For oestrogen treatment, cells were starved in phenol red-free DMEM supplemented with 10% charcoal-stripped FBS (Sigma) for 3–4 days, and 10 nM 17β-estradiol (Sigma) or ethanol (vehicle) were added to the medium (3 or 6 h for gene expression studies, and 15 and 45 min for ChIP experiments) before the cells were collected.
# (§7) ChIP analysis was performed essentially as described previously. Briefly, cells were crosslinked with 1% formaldehyde for 10 min at room temperature, and the reaction was stopped with 125 mM glycine. Nuclei were isolated by resuspending the cells in swelling buffer containing 5 mM PIPES, pH 8.0, 85 mM KCl, 1% NP-40 and complete protease inhibitors for 20 min at 4 °C. The isolated nuclei were resuspended in nuclei lysis buffer (50 mM Tris, pH 8.0, 10 mM EDTA, 1% SDS) and sonicated using a Bioruptor Sonicator (Diagenode). Samples were immunoprecipitated with 2–4 μg of the appropriate antibodies overnight at 4 °C. Immunoprecipitates were washed twice with dialysis buffer (50 mM Tris pH 8.0, 2 mM EDTA, 0.2% Sarkosyl) and four times with IP wash buffer (100 mM Tris, pH 8.0, 500 mM LiCl, 1% NP-40 and 1% deoxycholic acid sodium salt). After reverse crosslinking was performed, the DNA was eluted and purified using a PCR purification kit (Qiagene). The primer sequences used for ChIP analyses are listed in Supplementary Table 4.
# [3] = tested on: ERα target genes (GREB1, PR, TFF1); assay: qPCR of E2-induced ERα target gene expression in T-47D cells; type: cell-based, human; settings: 10 nM E2, 3 or 6 h; G9a-depleted T-47D
# Experimental: as §5
# Reverse transcription and real-time PCR were performed as described previously. mRNA was prepared using the RNeasy Plus kit (Qiagen) and reverse transcribed using the First Strand Synthesis kit (Invitrogen). Quantitative real-time RT–PCR (qPCR) was performed on an ABI 7500-FAST Sequence Detection System using the Power SYBR Green PCR Master Mix (Applied Biosystems). Gene expression was calculated following normalization to GAPDH levels using the comparative Ct (cycle threshold) method and is shown as ‘Fold' relative to the expression of each gene in the control cells without E2 treatment that was arbitrarily set as ‘1'. […]
# ERαK235me2 = assay: Immunofluorescence of ERαK235me2 in MCF-7 cells; type: cell-based, human; settings: 10 nM 17β-estradiol, 45 min; E2-deprived MCF-7
# Experimental: MCF-7 cells were E2-depleted for 3 days and treated with 10 nM 17β-estradiol or ethanol for 45 min. Cells were then fixed in 4% formaldehyde, washed and permeabilized in 0.5% Triton X-100 on ice for 10 min. Cells were then blocked in 3% BSA, incubated with primary antibodies in 3% BSA for 2 h, washed, and probed with fluorescein-conjugated secondary antibodies in 3% BSA for 1 h. Cells on the slide were then washed, covered with mounting medium (with DAPI) and observed using an Olympus confocal microscope FluoView FV1000.
# (d) ERαK235, but not K303, is required for the coactivator function of G9a in an estrogen response element- (ERE) driven luciferase assay. U2OS cells were cotransfected with G9a, NCOA2 and ERα (WT, K235R, or K303R) together with an ERE-Firefly luciferase and a Renilla luciferase, and the luciferase activity was determined 24 hrs after E2 treatment.
# (e) G9a has a catalytic activity-dependent and independent coactivator activity of ERα. U2OS cells were cotransfected with ERα, NCOA2 and […] (WT or H1113K) together with an ERE-Firefly luciferase and a Renilla luciferase, and the luciferase activity was determined as described in the Method section.
# (f) Both the E2-dependent and E2-independent ERα coactivator functions of G9a require the ERαK235 residue. […]
# [4] = tested on: ERα on GREB1 and PR promoters; assay: ERα ChIP-qPCR in MCF-7 cells; type: cell-based, human; settings: E2, 15 and 45 min
# Experimental: as §6
# as §7, with “The primer sequences used for ChIP analyses are listed in Supplementary Table 4.” left out
# [5] = tested on: ERα target genes (GREB1, PR, TFF1); assay: qPCR of E2-induced ERα target gene expression in MCF-7 cells; type: cell-based, human; settings: for fold induction of GREB1, PR and TFF1: control (shCtrl) MCF-7, relative to untreated cells
# Experimental: as §6
# Reverse transcription and real-time PCR were performed as described previously. mRNA was prepared using the RNeasy Plus kit (Qiagen) and reverse transcribed using the First Strand Synthesis kit (Invitrogen). Quantitative real-time RT–PCR (qPCR) was performed on an ABI 7500-FAST Sequence Detection System using the Power SYBR Green PCR Master Mix (Applied Biosystems). Gene expression was calculated following normalization to GAPDH levels using the comparative Ct (cycle threshold) method and is shown as ‘Fold' relative to the expression of each gene in the control cells without E2 treatment that was arbitrarily set as ‘1'. The primer sequences used for RT–PCR are listed in Supplementary Table 5.
# PHF20 Tudor [6] = assay: Peptide pull-down with GST-PHF20 Tudor; type: binding, human; settings: 1 μg biotinylated peptide, 1 μg GST-PHF20 Tudor, 50 mM Tris-HCl pH 7.5, 300 mM NaCl, 0.1% NP-40, overnight
# Experimental: (§8) The pGEX constructs encoding human G9a, ERα and ERα fragments including AF1 (aa 1–190), DBD (aa 175–250), hinge (aa 251–310), DBD+hinge (aa 175–310), LBD (aa 305–596) and the second Tudor domain of PHF20 (aa 58–148) were expressed in E. coli Rosetta (DE3) pLysS cells. After induction with IPTG (0.5 mM) for 16–18 h at 18 °C, cells were collected by centrifugation at 5,000g, lysed by sonication and purified using Glutathione Sepharose 4B beads (GE Healthcare). For the NMR titration assays, PHF20 Tudor was expressed in the ^15NH4Cl-supplemented (Sigma) minimal media, and the GST tag was cleaved with PreScission protease, and the cleaved protein was concentrated using Millipore concentrators (Millipore).
# (§9) For peptide pulldown assays, 1 μg of biotinylated histone and ERα peptides with or without methylation were incubated with 1 μg GST-PHF20 Tudor in binding buffer (50 mM Tris-HCl, pH 7.5, 300 mM NaCl, 0.1% NP-40 and 1 mM PMSF) for overnight. Streptavidin beads (GE Healthcare) were added into the mixture and incubated for 1 h with rotation. The beads were then washed three times, and analysed by SDS−PAGE and western blotting. For the protein domain array, the CADOR 5.0 protein domain array was probed with biotinylated ER peptides as described previously. The protein domains spotted on the CADOR 5.0 array are listed in the Supplementary Fig. 5.
# [7] = tested on: PHF20 Tudor W97A and Y103A mutants; assay: Peptide pull-down with PHF20 Tudor mutants; type: binding, human; settings: W97A and Y103A mutants of PHF20 Tudor
# Experimental: as §8, §9
# PHF20 Tudor [8] = assay: 1H,15N HSQC NMR titration of PHF20 Tudor; type: binding, human
# Experimental: as §8
# The ^1H,^15N HSQC spectra of 0.2 mM uniformly ^15N-labelled PHF20 Tudor (in 25 mM Tris-HCl, pH 7.5 buffer, 150 mM NaCl, 5 mM dithiothreitol and ∼8% D2O) were collected at 298 K on a Varian INOVA 600 MHz spectrometer. Binding was monitored by titrating unmodified ERα and ERαK235me2 peptides (aa 228–239) against the PHF20 Tudor domain. NMR data were processed and analysed with NMRPipe and NMRDraw as previously described. NMR assignments for PHF20 Tudor were taken from the Biological Magnetic Resonance Data Bank (BMRB 17673)[31].
compound,measurement,setting,value
"ERα peptide (aa 227–244) bearing dimethylated K235: ERα peptide (aa 227–244) bearing dimethylated K235, biotinylated, used to probe the CADOR array (CTIDKNRRK(Me2)SCQACRLRK; cysteine pairing not given here; also: biotin, end not given here)",recognition by 53BP1 Tudor,53BP1 Tudor,recognized the ERα peptide in a K235 methylation-dependent manner
same,recognition by PHF20/PHF20L Tudor,[1],recognized the ERα peptide in a K235 methylation-dependent manner
same,recognition by S. pombe SPF30 Tudor,S. pombe SPF30 Tudor,recognized the ERα peptide in a K235 methylation-dependent manner
"C[C@]12CC[C@@H]3c4ccc(O)cc4CC[C@H]3[C@@H]1CC[C@@H]2O [E2, 17β-estradiol]",number of E2-activated genes,MCF-7 cells,774 genes
same,E2-dependent H4K16ac and ERα on GREB1 and PR promoters (H4K16ac),"[2]; E2, 15 and 45 min, G9a-depleted MCF-7",markedly reduced
same,E2-dependent increase of H4K16ac on GREB1 and PR promoters,"[2]; E2, 15 and 45 min, PHF20-depleted MCF-7",greatly diminished
same,H4K16ac levels on GREB1 and PR promoters,"[2]; E2, 15 and 45 min, control MCF-7",dramatic increase in H4K16ac levels
same,H4K16ac on genes not regulated by PHF20,"[2]; E2, MCF-7",no apparent H4K16ac signals were detected
same,E2-induced gene activation on G9a depletion,[3],drastically decreased
same,ERαK235me2 level,ERαK235me2,increased upon E2 stimulation
same,levels of ERα on GREB1 and PR promoters,[4]; G9a-depleted MCF-7,markedly reduced
same,ERα occupancy on the promoters of GREB1 and PR,[4]; PHF20 knockdown MCF-7,no or minimal ERα occupancy was detected
same,ERα on the promoters of GREB1 and PR,[4]; control MCF-7,E2-dependent increase of ERα on the promoters of GREB1 and PR
same,E2-induced activation of GREB1 and PR on PHF20 depletion,"[5]; 10 nM E2, 3 or 6 h, PHF20 knockdown MCF-7",drastically decreased
same,"fold induction of GREB1, PR and TFF1","[5]; 10 nM E2, 3 h",~4 fold
same,"fold induction of GREB1, PR and TFF1","[5]; 10 nM E2, 6 h",~6 fold
"ERαK235me2 peptide: ERα peptide dimethylated at K235; aa 228–239 in NMR titrations, biotinylated in pull-downs (TIDKNRRK(Me2)SCQA; also: biotinylated in pull-downs, end not given here; UniProt P03372 228-239, looked up, fragment)",interaction with PHF20 Tudor (pull-down),PHF20 Tudor [6],strong interaction
same,binding to PHF20 Tudor W97/Y103 mutants (pull-down),[7],abolished the binding
same,chemical shift changes of PHF20 Tudor,"PHF20 Tudor [8]; 0.2 mM 15N-labelled PHF20 Tudor, 25 mM Tris-HCl pH 7.5, 150 mM NaCl, 298 K, 600 MHz",large chemical shift changes
same,"backbone amide resonances A95, W97, Y103, A105, V118, F120, D122-Q126 of PHF20 Tudor","PHF20 Tudor [8]; HSQC titration, 0.2 mM PHF20 Tudor, pH 7.5, 298 K",significant shifting and broadening
